Patent publication US20150315554A1, “CELL LINES EXPRESSING CFTR AND METHODS OF USING THEM” (Chromocell Corporation, priority 2009, published 2015)
“And” between values parts separate entries of the source, which are not always exact repeats. Equal entries are not always repeated.

Test system: human CFTR
Assay: high-throughput compatible fluorescence membrane potential assay, forskolin dose-response in stable CFTR-expressing CHO cell lines
Format: cell-based
Details: stable CFTR-expressing CHO cell line, 15,000 cells/well, 384-well plate, membrane potential dye
Experimental: CHO cell lines stably expressing CFTR were maintained under standard cell culture conditions in Ham's F12 medium supplemented with 10% fetal bovine serum and glutamine. On the day before assay, the cells were harvested from stock plates and plated into black clear-bottom 384 well assay plates at a density that is sufficient to attain 90% confluency on the day of the assay. The assay plates were maintained in a 37° C. cell culture incubator under 5% CO2 for 22-24 hours. The media was then removed from the assay plates and blue membrane potential dye (Molecular Devices Inc.) diluted in loading buffer (137 mM NaCl, 5 mM KCl, 1.25 mM CaCl2, 25 mM HEPES, 10 mM glucose) was added and allowed to incubate for 1 hour at 37° C. The assay plates were then loaded on a fluorescent plate reader (Hamamatsu FDSS) and a cocktail of forskolin and IBMX dissolved in compound buffer (137 mM sodium gluconate, 5 mM potassium gluconate, 1.25 mM CaCl2, 25 mM HEPES, 10 mM glucose) was added. For forskolin dose-response experiments, cells of the produced stable CFTR-expressing cell lines, plated at a density of 15,000 cells/well in a 384-well plate were challenged with increasing concentration of forskolin, a known CFTR agonist. The cellular response as a function of changes in cell fluorescence was monitored over time by a fluorescent plate reader (Hamamatsu FDSS).

EC50: 256 nM and ~250 nM
SMILES: C=C[C@@]1(C)CC(=O)[C@]2(O)[C@@]3(C)[C@@H](O)CCC(C)(C)[C@@H]3[C@H](O)[C@H](OC(C)=O)[C@@]2(C)O1 [forskolin]
